Experimental data from patent US12084434B2 (Scorpion Therapeutics, Inc., priority 2021, dated 2024).

Tested on: T47D pAKT (S473), PI3Kα H1047R mutation present
Assay: HTRF pAKT-T47D;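 also: assay medium was RPMI with 10% FBS and 0.2 units/ml bovine insulin, without phenol red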
Conditions: Homo sapiens, T47D, 1 h, read-out: T47D pAKT IC50 (nM), T47D.1 cells, pAKT (S473) HTRF, 1 hour
Method: Homogenous Time-Resolved Fluorescence (HTRF)—pAKT-T47D
Compounds were assayed using homogeneous time-resolved fluorescence (HTRF).
Gibco RPMI 1640 Medium, no phenol red; Gibco RPMI 1640 Medium; Gibco Trypsin-EDTA (0.5%), no phenol red; Gibco DPBS; Trypan blue solution 0.4% (Corning); Avantor Seradigm Premium Grade Fetal Bovine Serum (FBS); Greiner 784080-384 well TC treated white plates; pAKT (Ser473) HTRF; Gibco Insulin, human recombinant, zinc solution; Gibco Recovery Cell Culture Freezing Medium; Countess II FL Automated Cell Counter (ThermoFisher); Countess II Slides (ThermoFisher); Microscope; and PHERAstar FSX Microplate Reader (BMG LABTECH, Inc.).
The scinamic cell line ID was T47D.1, the HTRF detection was pAKT (S473), a PI3Kα H1047R mutation was present, the seeding density was 5000, the timepoint was 1 hour, and the medium used was RPMI+10% FBS (no phenol red)+0.2 units/ml bovine insulin.
• The cell density was not permitted to reach 100% confluence. The cells were split 1:5 when they reached ˜80% confluence. • Cells were split twice a week (Mon and Fri). • Cells over passage 18 were not used (˜2 months of maintenance). • Antibiotics were not used for tissue culture maintenance or assays. […] Protocol Day1
The procedure was as follows: • 1. Prepared ARP: • a. Stamped 12.5 nL from 10 μmM source plate to destination plate using Echo. Sealed plate immediately and froze at −20° C. if it was not used on the same day. • b. If a frozen ARP was used, the plate was thawed and spun at 1000 rpm×1 min. • 2. Preparation of cells (adherent): • a. Aspirated media from cells. Washed cells with sterile 1XPBS. Aspirated PBS and added appropriate amount of Trypsin. • b. Once cells were fully trypsinized, added appropriate media to resuspend cells. Transferred cells to a 15 mL or 50 mL conical tube. • c. Counted cells on the Countess II Cell Counter. • 3. Plating of cells: • a. Prepared cells at appropriate plating density. Dispensed 12 μL of diluted cells per well of a Greiner 784080-384 well TC treated white plate using a Multidrop Combi to columns 1-23. Added 12 uL of appropriate phenol free media only to column 24. • b. Placed plates in 37° C. tissue culture incubator for appropriate treatment time (refer to “Assay” table). • 4. Prepared HTRF Lysis Buffer • a. Calculate the amount of HTRF lysis buffer master mix needed to perform the desired experiments plus any extra dead volume required for dispensing (4 μL required per well). […] Add 4 uL Lysis buffer master mix to all wells with sample or DMSO. Centrifuge the plates for 1 minute at 1000 rpm. • c. Incubate at room temperature for 30 minutes. • 5. Prepared HTRF Antibody • a.

SMILES	IC50 [nM]
Cc1c([C@@H](NC(=O)Nc2cnc(N3CCC(O)CC3)nc2)C(C)C)oc2ccc(F)cc12 [Compound 140]	< 1000
Cc1c([C@@H](NC(=O)Nc2cnc(NCC(N)=O)nc2)C(C)C)oc2ccc(F)cc12 [Compound 134, (S)-2-((5-(3-(1-(5-fluoro-3-methylbenzofuran-2-yl)-2-methylpropyl)ureido)pyrimidin-2-yl)amino)acetamide]	< 1000
Cc1c([C@@H](NC(=O)Nc2ccc3c(c2)C(=O)N(C)C3)C(C)C)oc2ccc(F)cc12 [Compound 103]	1000 to 5000
Cc1c([C@@H](NC(=O)Nc2cnc(N3CC4(COC4)C3)nc2)C(F)(F)F)oc2ccc(F)cc12 [Compound 168, (R)-1-(2-(2-oxa-6-azaspiro[3.3]heptan-6-yl)pyrimidin-5-yl)-3-(2,2,2-trifluoro-1-(5-fluoro-3-methylbenzofuran-2-yl)ethyl)urea]	< 1000
COc1ncc(NC(=O)N[C@H](c2oc3ccc(F)cc3c2C)C(C)C)cn1 [Compound 150, (S)-1-(1-(5-fluoro-3-methylbenzofuran-2-yl)-2-methylpropyl)-3-(2-methoxypyrimidin-5-yl)urea]	< 1000
CNC(=O)c1cc(NC(=O)N[C@H](c2oc3ccc(F)cc3c2C)C(C)C)ccc1OC [Compound 104]	< 1000
Cc1c([C@@H](NC(=O)Nc2cnc(N3CCC(C)(O)CC3)nc2)C(C)C)oc2ccc(F)cc12 [Compound 141]	< 1000
Cc1c([C@@H](NC(=O)Nc2ccc(Cl)c(S(C)(=O)=O)c2)C(C)C)oc2ccc(F)cc12 [Compound 126, (S)-1-(4-chloro-3-(methylsulfonyl)phenyl)-3-(1-(5-fluoro-3-methylbenzofuran-2-yl)-2-methylpropyl)urea]	1000 to 5000
CNC(=O)c1ncc(NC(=O)N[C@H](c2oc3ccc(F)cc3c2C)C(C)C)cn1 [Compound 77, (S)-5-(3-(1-(5-fluoro-3-methylbenzofuran-2-yl)-2-methylpropyl)ureido)-N-methylpyrimidine-2-carboxamide]	1000 to 5000
Cc1c([C@@H](NC(=O)Nc2cnc(N3CCSCC3)nc2)C(C)C)oc2ccc(F)cc12 [Compound 145, 3-[(1S)-1-(5-fluoro-3-methyl-1-benzofuran-2-yl)-2-methylpropyl]-1-[2-(thiomorpholin-4-yl)pyrimidin-5-yl]urea]	< 1000
Cc1c([C@@H](NC(=O)Nc2cnc(N3CCOCC3)nc2)C(C)C)oc2ccc(F)cc12 [Compound 107]	< 1000
Cc1c([C@@H](NC(=O)Nc2cnc(N3CC4(CNC(=O)CO4)C3)nc2)C(C)C)oc2ccc(F)cc12 [Compound 166, 3-[(1S)-1-(5-fluoro-3-methyl-1-benzofuran-2-yl)-2-methylpropyl]-1-(2-{7-oxo-5-oxa-2,8-diazaspiro[3.5]nonan-2-yl}pyrimidin-5-yl)urea]	< 1000

Other lines, results leading:

IC50 [nM]	SMILES
> 5000	Cc1c([C@H](NC(=O)Nc2cnc(N3CC(C(C)(C)O)C3)nc2)C(F)(F)F)oc2c(F)cc(F)cc12 [Compound 206]
< 1000	Cc1c([C@@H](NC(=O)Nc2cnc(N3CC(O)C3)nc2)C(F)(F)F)oc2ccc(F)cc12 [Compound 89, (R)-1-(2-(3-hydroxyazetidin-1-yl)pyrimidin-5-yl)-3-(2,2,2-trifluoro-1-(5-fluoro-3-methylbenzofuran-2-yl)ethyl)urea]
< 1000	Cc1c([C@@H](NC(=O)Nc2cnc(N3CC[C@@H](O)C3)nc2)C(F)(F)F)oc2c(F)cc(F)cc12 [Compound 208]
1000 to 5000	Cc1c(C(NC(=O)Nc2cnc(N3CC(S(C)(=O)=O)C3)nc2)C(F)(F)F)oc2c(F)cc(F)cc12 (racemic) [Compound 185, 1-(1-(5,7-difluoro-3-methylbenzofuran-2-yl)-2,2,2-trifluoroethyl)-3-(2-(3-(methylsulfonyl)azetidin-1-yl)pyrimidin-5-yl)urea]
< 1000	Cc1c([C@@H](NC(=O)Nc2cnc(N3CC(C(C)(C)O)C3)nc2)C(F)(F)F)oc2c(F)cc(F)cc12 [Compound 205]

Same assay, conditions: read-out: T47D pAKT IC50; T47D.1 cells, pAKT (S473) HTRF, 1 hour

SMILES	IC50 [nM]
Cc1c(C(NC(=O)Nc2cnc(N3CC(O)C3)nc2)C(F)(F)F)oc2ccc(Cl)cc12 (racemic) [Compound 153, 3-[1-(5-chloro-3-methyl-1-benzofuran-2-yl)-2,2,2-trifluoroethyl]-1-[2-(3-hydroxyazetidin-1-yl)pyrimidin-5-yl]urea]	> 5000
CCc1c(C(NC(=O)Nc2cnc(N)nc2)C(F)(F)F)oc2ccc(F)cc12 (racemic) [Compound 132, 1-(2-aminopyrimidin-5-yl)-3-[1-(3-ethyl-5-fluoro-1-benzofuran-2-yl)-2,2,2-trifluoroethyl]urea]	< 1000
Cc1c(C(NC(=O)Nc2cnc(N3CC(O)C3)nc2)C(F)(F)F)oc2ccc(Cl)cc12 (racemic) [Compound 154, 3-[1-(5-chloro-3-methyl-1-benzofuran-2-yl)-2,2,2-trifluoroethyl]-1-[2-(3-hydroxyazetidin-1-yl)pyrimidin-5-yl]urea]	< 1000

Further lines, results first:

IC50 [nM]	SMILES
< 1000	Cc1c(C(NC(=O)Nc2cnc(N[C@@H](C)CO)nc2)C(F)(F)F)oc2c(F)cc(F)cc12 (single isomer, unassigned) [Compound 196]
> 5000	Cc1c(C(NC(=O)Nc2cnc(N[C@H](C)CO)nc2)C(F)(F)F)oc2c(F)cc(F)cc12 (single isomer, unassigned) [Compound 187]
> 5000	Cc1c(C(NC(=O)Nc2cnc(N3CCNC(=O)C3)nc2)C(F)(F)F)oc2c(F)cc(F)cc12 (single isomer, unassigned) [Compound 190, 1-(1-(5,7-difluoro-3-methylbenzofuran-2-yl)-2,2,2-trifluoroethyl)-3-(2-(3-oxopiperazin-1-yl)pyrimidin-5-yl)urea]
< 1000	Cc1c(C(NC(=O)Nc2cnc(N)nc2)C(F)(F)F)oc2c(C3CC3)cc(F)cc12 (single isomer, unassigned) [Compound 218, 1-(2-aminopyrimidin-5-yl)-3-[1-(7-cyclopropyl-5-fluoro-3-methyl-1-benzofuran-2-yl)-2,2,2-trifluoroethyl]urea]
> 5000	Cc1c(C(NC(=O)Nc2cnc(N)nc2)C(F)(F)F)oc2c(F)cc(Cl)cc12 (racemic) [Compound 155, 1-(2-aminopyrimidin-5-yl)-3-[1-(5-chloro-7-fluoro-3-methyl-1-benzofuran-2-yl)-2,2,2-trifluoroethyl]urea]
< 1000	Cc1c(C(NC(=O)Nc2cnc(N)nc2)C(F)(F)F)oc2c(C#N)cc(F)cc12 (single isomer, unassigned) [Compound 220, 1-(2-aminopyrimidin-5-yl)-3-[1-(7-cyano-5-fluoro-3-methyl-1-benzofuran-2-yl)-2,2,2-trifluoroethyl]urea]
< 1000	Cc1c(C(NC(=O)Nc2ccc(N)cc2)C(F)(F)F)oc2c(F)cc(F)cc12 (single isomer, unassigned) [Compound 222, 1-(4-aminophenyl)-3-(1-(5,7-difluoro-3-methylbenzofuran-2-yl)-2,2,2-trifluoroethyl)urea]
< 1000	Cc1c(C(NC(=O)Nc2cnc(N)nc2)C(F)(F)F)oc2c(Br)cc(F)cc12 (single isomer, unassigned) [Compound 216, 1-(2-aminopyrimidin-5-yl)-3-[1-(7-bromo-5-fluoro-3-methyl-1-benzofuran-2-yl)-2,2,2-trifluoroethyl]urea]
